PubChem BioAssay (NCI)
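Method: 48-hour compound exposure of cells in 96-well plates, five concentrations, linear interpolation of endpoints. At the TGI there is no net growth.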

Legend:
Assay in all cases: DTP human tumour cell line panel, 48 h
CCRF-CEM leukemia = system: CCRF-CEM leukemia
SF-295 CNS = system: SF-295 CNS
TK-10 renal = system: TK-10 renal
NCI-H460 lung = system: NCI-H460 lung
UO-31 renal = system: UO-31 renal
K-562 leukemia = system: K-562 leukemia
IGROV1 ovarian = system: IGROV1 ovarian
EKVX NSCLC = system: EKVX NSCLC
SNB-75 CNS = system: SNB-75 CNS
SF-539 CNS = system: SF-539 CNS
NCI-H23 lung = system: NCI-H23 lung
COLO 205 colon = system: COLO 205 colon
HL-60(TB) leukemia = system: HL-60(TB) leukemia
SR leukemia = system: SR leukemia
SNB-19 CNS = system: SNB-19 CNS
SK-OV-3 ovarian = system: SK-OV-3 ovarian
LOX IMVI melanoma = system: LOX IMVI melanoma
MDA-MB-231 breast = system: MDA-MB-231 breast
NCI-H226 lung = system: NCI-H226 lung
U251 CNS = system: U251 CNS
SK-MEL-2 melanoma = system: SK-MEL-2 melanoma
PC-3 prostate = system: PC-3 prostate
SF-268 CNS = system: SF-268 CNS
SW-620 colon = system: SW-620 colon
HOP-62 NSCLC = system: HOP-62 NSCLC
KM12 colon = system: KM12 colon
RXF 393 renal = system: RXF 393 renal
MALME-3M melanoma = system: MALME-3M melanoma
SK-MEL-28 melanoma = system: SK-MEL-28 melanoma
NCI-H522 lung = system: NCI-H522 lung
A498 renal = system: A498 renal
MDA-N = system: MDA-N
HT29 colon = system: HT29 colon
UACC-62 melanoma = system: UACC-62 melanoma
HCT-15 colon = system: HCT-15 colon
HOP-92 NSCLC = system: HOP-92 NSCLC
HCT-116 colon = system: HCT-116 colon
BT-549 breast = system: BT-549 breast
UACC-257 melanoma = system: UACC-257 melanoma
MDA-MB-435 = system: MDA-MB-435
ACHN renal = system: ACHN renal
OVCAR-8 ovarian = system: OVCAR-8 ovarian
MCF7 breast = system: MCF7 breast
DU-145 prostate = system: DU-145 prostate
786-0 renal = system: 786-0 renal
SK-MEL-5 melanoma = system: SK-MEL-5 melanoma
SN12C renal = system: SN12C renal
T-47D breast = system: T-47D breast
M14 melanoma = system: M14 melanoma
RPMI-8226 leukemia = system: RPMI-8226 leukemia
A549 NSCLC = system: A549 NSCLC
OVCAR-4 ovarian = system: OVCAR-4 ovarian
OVCAR-5 ovarian = system: OVCAR-5 ovarian
CAKI-1 renal = system: CAKI-1 renal
NCI/ADR-RES ovarian = system: NCI/ADR-RES ovarian
MOLT-4 leukemia = system: MOLT-4 leukemia
HS 578T breast = system: HS 578T breast
HCC-2998 colon = system: HCC-2998 colon
OVCAR-3 ovarian = system: OVCAR-3 ovarian

Compound: CC(=NC1CCCCC1)c1ccccc1O
- TGI (CCRF-CEM leukemia): > 100 µM
- TGI (SF-295 CNS): > 100 µM
- TGI (TK-10 renal): > 100 µM
- TGI (NCI-H460 lung): > 100 µM
- TGI (UO-31 renal): > 100 µM
- TGI (K-562 leukemia): > 100 µM
- TGI (IGROV1 ovarian): > 100 µM
- TGI (EKVX NSCLC): > 100 µM
- TGI (SNB-75 CNS): > 100 µM
- TGI (SF-539 CNS): > 100 µM
- TGI (NCI-H23 lung): > 100 µM
- TGI (COLO 205 colon): > 100 µM
- TGI (HL-60(TB) leukemia): > 100 µM
- TGI (SR leukemia): > 100 µM
- TGI (SNB-19 CNS): > 100 µM
- TGI (SK-OV-3 ovarian): > 100 µM
- TGI (LOX IMVI melanoma): > 100 µM
- TGI (MDA-MB-231 breast): > 100 µM
- TGI (NCI-H226 lung): > 100 µM
- TGI (U251 CNS): > 100 µM
- TGI (SK-MEL-2 melanoma): > 100 µM
- TGI (PC-3 prostate): > 100 µM
- TGI (SF-268 CNS): > 100 µM
- TGI (SW-620 colon): > 100 µM
- TGI (HOP-62 NSCLC): > 100 µM
- TGI (KM12 colon): > 100 µM
- TGI (RXF 393 renal): > 100 µM
- TGI (MALME-3M melanoma): > 100 µM
- TGI (SK-MEL-28 melanoma): > 100 µM
- TGI (NCI-H522 lung): > 100 µM
- TGI (A498 renal): > 100 µM
- TGI (MDA-N): > 100 µM
- TGI (HT29 colon): > 100 µM
- TGI (UACC-62 melanoma): > 100 µM
- TGI (HCT-15 colon): > 100 µM
- TGI (HOP-92 NSCLC): > 100 µM
- TGI (HCT-116 colon): > 100 µM
- TGI (BT-549 breast): > 100 µM
- TGI (UACC-257 melanoma): > 100 µM
- TGI (MDA-MB-435): > 100 µM
- TGI (ACHN renal): > 100 µM
- TGI (OVCAR-8 ovarian): > 100 µM
- TGI (MCF7 breast): > 100 µM
- TGI (DU-145 prostate): > 100 µM
- TGI (786-0 renal): > 100 µM
- TGI (SK-MEL-5 melanoma): > 100 µM
- TGI (SN12C renal): > 100 µM
- TGI (T-47D breast): > 100 µM
- TGI (M14 melanoma): > 100 µM
- TGI (RPMI-8226 leukemia): > 100 µM
- TGI (A549 NSCLC): > 100 µM
- TGI (OVCAR-4 ovarian): > 100 µM
- TGI (OVCAR-5 ovarian): > 100 µM
- TGI (CAKI-1 renal): > 100 µM
- TGI (NCI/ADR-RES ovarian): > 100 µM
- TGI (MOLT-4 leukemia): > 100 µM

Compound: CCN(CC)c1ccc2cc(-c3nc(-c4ccccc4)n[nH]3)c(=O)oc2c1
- TGI (CCRF-CEM leukemia): > 100 µM
- TGI (HS 578T breast): > 100 µM
- TGI (SF-295 CNS): > 100 µM
- TGI (NCI-H460 lung): > 100 µM
- TGI (UO-31 renal): 20.4 µM
- TGI (K-562 leukemia): > 100 µM
- TGI (IGROV1 ovarian): 57.9 µM
- TGI (EKVX NSCLC): 88.7 µM
- TGI (SF-539 CNS): 45.6 µM
- TGI (NCI-H23 lung): 44.6 µM
- TGI (COLO 205 colon): > 100 µM
- TGI (HL-60(TB) leukemia): > 100 µM
- TGI (SR leukemia): > 100 µM
- TGI (SNB-19 CNS): 61.5 µM
- TGI (SK-OV-3 ovarian): 39.4 µM
- TGI (LOX IMVI melanoma): > 100 µM
- TGI (U251 CNS): 96.2 µM
- TGI (SK-MEL-2 melanoma): > 100 µM
- TGI (PC-3 prostate): 70.1 µM
- TGI (SF-268 CNS): > 100 µM
- TGI (SW-620 colon): > 100 µM
- TGI (HOP-62 NSCLC): 22 µM
- TGI (HCC-2998 colon): > 100 µM
- TGI (KM12 colon): > 100 µM
- TGI (MALME-3M melanoma): > 100 µM
- TGI (SK-MEL-28 melanoma): > 100 µM
- TGI (NCI-H522 lung): > 100 µM
- TGI (A498 renal): 90.1 µM
- TGI (MDA-N): > 100 µM
- TGI (HT29 colon): > 100 µM
- TGI (UACC-62 melanoma): > 100 µM
- TGI (HCT-15 colon): > 100 µM
- TGI (HCT-116 colon): > 100 µM
- TGI (BT-549 breast): 89.3 µM
- TGI (UACC-257 melanoma): > 100 µM
- TGI (MDA-MB-435): > 100 µM
- TGI (ACHN renal): > 100 µM
- TGI (OVCAR-8 ovarian): 28.7 µM
- TGI (MCF7 breast): > 100 µM
- TGI (DU-145 prostate): 40.4 µM
- TGI (786-0 renal): 32.1 µM
- TGI (SK-MEL-5 melanoma): > 100 µM
- TGI (M14 melanoma): > 100 µM
- TGI (RPMI-8226 leukemia): > 100 µM
- TGI (A549 NSCLC): > 100 µM
- TGI (OVCAR-4 ovarian): 53.7 µM
- TGI (OVCAR-5 ovarian): > 100 µM
- TGI (CAKI-1 renal): 73.8 µM
- TGI (NCI/ADR-RES ovarian): > 100 µM
- TGI (OVCAR-3 ovarian): > 100 µM
- TGI (MOLT-4 leukemia): > 100 µM

Compound: O=c1[nH]c(=S)[nH]c2c1C(c1ccc(Cl)cc1)c1c([nH]c(=S)[nH]c1=O)O2
- TGI (CCRF-CEM leukemia): > 100 µM
- TGI (HS 578T breast): > 100 µM
- TGI (SF-295 CNS): > 100 µM
- TGI (TK-10 renal): > 100 µM
- TGI (NCI-H460 lung): > 100 µM
- TGI (UO-31 renal): > 100 µM
- TGI (K-562 leukemia): > 100 µM
- TGI (IGROV1 ovarian): > 100 µM
- TGI (EKVX NSCLC): > 100 µM
- TGI (NCI-H23 lung): > 100 µM
- TGI (COLO 205 colon): > 100 µM
- TGI (HL-60(TB) leukemia): > 100 µM
- TGI (SNB-19 CNS): > 100 µM
- TGI (LOX IMVI melanoma): > 100 µM
- TGI (MDA-MB-231 breast): > 100 µM
- TGI (NCI-H226 lung): > 100 µM
- TGI (U251 CNS): > 100 µM
- TGI (SK-MEL-2 melanoma): > 100 µM
- TGI (PC-3 prostate): > 100 µM
- TGI (SF-268 CNS): > 100 µM
- TGI (SW-620 colon): > 100 µM
- TGI (HOP-62 NSCLC): > 100 µM
- TGI (KM12 colon): > 100 µM
- TGI (RXF 393 renal): > 100 µM
- TGI (MALME-3M melanoma): > 100 µM
- TGI (SK-MEL-28 melanoma): > 100 µM
- TGI (NCI-H522 lung): > 100 µM
- TGI (A498 renal): > 100 µM
- TGI (MDA-N): > 100 µM
- TGI (HT29 colon): > 100 µM
- TGI (UACC-62 melanoma): > 100 µM
- TGI (HCT-15 colon): > 100 µM
- TGI (HOP-92 NSCLC): > 100 µM
- TGI (HCT-116 colon): > 100 µM
- TGI (BT-549 breast): > 100 µM
- TGI (UACC-257 melanoma): > 100 µM
- TGI (MDA-MB-435): > 100 µM
- TGI (ACHN renal): > 100 µM
- TGI (OVCAR-8 ovarian): > 100 µM
- TGI (MCF7 breast): > 100 µM
- TGI (DU-145 prostate): > 100 µM
- TGI (786-0 renal): > 100 µM
- TGI (SK-MEL-5 melanoma): > 100 µM
- TGI (SN12C renal): > 100 µM
- TGI (M14 melanoma): > 100 µM
- TGI (RPMI-8226 leukemia): > 100 µM
- TGI (A549 NSCLC): > 100 µM
- TGI (OVCAR-4 ovarian): > 100 µM
- TGI (OVCAR-5 ovarian): > 100 µM
- TGI (CAKI-1 renal): > 100 µM
- TGI (NCI/ADR-RES ovarian): > 100 µM
- TGI (OVCAR-3 ovarian): > 100 µM
- TGI (MOLT-4 leukemia): > 100 µM
